Experiments:
Type in all cases: cell-based
IL-6 = assay: Inhibition of IL-6 in LPS-stimulated THP-1 human monocyte cells (HTRF); settings: IL-6 inhibition, LPS-stimulated THP-1 cells, HTRF
How it was run: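 THP-1 cells serum-reduced (1% FBS, 24 h), then 5000 cells/well preincubated 2 h with compound (10-point 1:3 series from 10 μM, 0.1% DMSO) before 500 ng/mL LPS for 22 h at 37 °C. Secreted IL-6 quantified by HTRF 665/620 ratio; DMSO-normalised duplicates fitted to four-parameter EC50; above 10 μM, % inhibition at 10 μM given.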

SW480 colon cancer cells = assay: Cell viability assay (CellTiter-Blue) in SW480 colon cancer cells; settings: Homo sapiens, 96 h, four days, CellTiter-Blue
How it was run: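 SW480 cells (~2×10^3 per well) were exposed to compound for four days at 37 °C/5% CO2, using 8-point 1:3 dilutions from 10 μM to 0.0045 μM in duplicate. Viability was read by resazurin reduction (CellTiter-Blue, ~3 h, Ex 560/Em 590 nm). EC50 came from non-linear regression; above 10 μM, percent inhibition at 10 μM is given.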

[1] = test system: Wnt activity (Sp5-Luc reporter, TCF/LEF binding sites) in SW480 colon carcinoma cells; assay: Screening assay for Wnt activity: Sp5-Luc reporter gene assay in stably transduced SW480 colon carcinoma cells; settings: Homo sapiens, overnight incubation, 10-point curve from 10 μM
How it was run: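 SW480 cells stably transduced with a luciferase reporter driven by an Sp5 promoter of eight TCF/LEF sites were plated at 4,000 cells/well in 1% FBS medium. They were exposed overnight at 37° C to a 10-point 1:3 dilution series from 10 μM (0.1% DMSO). Luminescence was normalized to DMSO for four-parameter EC50, or percent inhibition at 10 μM.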

[2] = test system: primary human mesenchymal stem cells (hMSCs); assay: Induction of chondrogenesis in primary human mesenchymal stem cells (nodule imaging, Rhodamine B / Nile Red)
Method: Representative compounds were screened using primary human mesenchymal stem cells (hMSCs) to determine their ability to induce chondrogenesis (process by which cartilage is developed).
Primary human mesenchymal stem cells (hMSCs) were purchased from Lonza (Walkersville, Md.) and expanded in Mesenchymal Stem Cell Growth Media (Lonza). Cells between passage 3 and 6 were used for the experiments.
Each compound was dissolved in DMSO as a 10 mM stock and used to prepare compound source plates. For the 96 well assay, serial dilution (1:3, 6-point dose-response curves from 2700 nM to 10 nM) and compound transfer was performed using the ECHO 550 (Labcyte, Sunnyvale, Calif.) into 96-well clear bottom assay plates (Greiner Bio-One) with appropriate DMSO backfill for a final DMSO concentration of 0.03%. hMSCs were plated at 20,000 cells/well in 250 μL/well Incomplete Chondrogenic Induction Medium (Lonza; DMEM, dexamethasone, ascorbate, insulin-transferrin-selenium [ITS supplement], gentamycin-amphotericin [GA-1000], sodium pyruvate, proline and L-glutamine). TGF-β3 (10 ng/mL) was used as a positive control for differentiation while negative control wells were treated with 75 nL DMSO for normalization and calculating EC50 values. For the 384 well assay, serial dilution (1:3, 8-point dose-response curves from 5000 nM to 2.2 nM) and compound transfer was performed using the ECHO 550 (Labcyte, Sunnyvale, Calif.) into 384-well clear bottom assay plates (Greiner Bio-One) with appropriate DMSO backfill for a final DMSO concentration of 0.03%. hMSCs were plated at 8,000 cells/well in 80 μL/well Incomplete Chondrogenic Induction Medium (Lonza; DMEM, dexamethasone, ascorbate, insulin-transferrin-selenium [ITS supplement], gentamycin-amphotericin [GA-1000], sodium pyruvate, proline and L-glutamine). TGF-β3 (10 ng/mL) was used as a positive control for differentiation while negative control wells were treated with 25 nL DMSO for normalization and calculating EC50 values. Cells were incubated at 37° C. and 5% CO2 for 6 days. To image chondrogenic nodules, the cells were fixed using 4% formaldehyde (Electron Microscopy Sciences), and stained with 2 μg/mL Rhodamine B (Sigma-Aldrich) and 20 μM Nile Red (Sigma-Aldrich) [Johnson K., et. al, A Stem CellBased Approach to Cartilage Repair, Science, (2012), 336(6082), 717-721]. The nodules imaged (25 images per well for 96 well plates and 9 images per well for 384 well plates at 10× magnification) by excitation at 531 nm and emission at 625 nm and quantified using the CellInsight CX5 (Thermo Scientific). Area of nodules in each well was normalized to the average of 3 DMSO treated wells on the same plate using Excel (Microsoft Inc.). The normalized averages (fold change over DMSO) of 2 or 3 replicate wells for each compound concentration were calculated. Due to solubility limitations of some of the compounds, curve fitting was incomplete leading to inaccurate EC50 determinations.
Using TGF-β3 as a positive control, the concentration of representative compounds required to induce 50% levels of chondrogenesis is reported. In addition, the maximum activity of each compound and the respective dose that each compound reached maximum chondrogenesis activity is reported.

COc1cncc(-c2ccc3[nH]nc(-c4cc5c(-c6ccoc6)cccc5[nH]4)c3c2)c1 [Compound 720, 3-(4-(Furan-3-yl)-1H-indol-2-yl)-5-(5-methoxypyridin-3-yl)-1H-indazole]
EC50 (IL-6): 0.329 µM
EC50 (SW480 colon cancer cells): 1.4 µM
EC50 [1]: 0.588 µM
EC50 ([2]; concentration required to induce 50% levels of chondrogenesis vs TGF-β3 positive control, read-out: Conc (nM) of 50% TGF-β3 activity): 10 nM
Emax ([2]; maximum chondrogenesis activity relative to TGF-β3 (10 ng/mL) positive control, read-out: Max. Activity as % TGF-β3 activity): 151%

— patent US10604512B2, “3-(1H-indol-2-yl)-1H-indazoles and therapeutic uses thereof” (Samumed, LLC, priority 2015, dated 2020)
